Measured values taken from BigSolDB 2.1.

Nc1cnc(Cl)cn1
solubility (mole fraction) (in ethanol, 278.15 K): 0.00222
solubility (mole fraction) (in ethanol, 283.15 K): 0.00302
solubility (mole fraction) (in ethanol, 288.15 K): 0.00388
solubility (mole fraction) (in ethanol, 293.15 K): 0.00477
solubility (mole fraction) (in ethanol, 298.15 K): 0.0058
solubility (mole fraction) (in ethanol, 303.15 K): 0.00692
solubility (mole fraction) (in ethanol, 308.15 K): 0.00813
solubility (mole fraction) (in ethanol, 313.15 K): 0.00961
solubility (mole fraction) (in ethanol, 318.15 K): 0.0111
solubility (mole fraction) (in ethanol, 323.15 K): 0.0131
solubility (mole fraction) (in ethylene glycol, 278.15 K): 0.000321
solubility (mole fraction) (in ethylene glycol, 283.15 K): 0.000398
solubility (mole fraction) (in ethylene glycol, 288.15 K): 0.000506
solubility (mole fraction) (in ethylene glycol, 293.15 K): 0.000615
solubility (mole fraction) (in ethylene glycol, 298.15 K): 0.000747
solubility (mole fraction) (in ethylene glycol, 303.15 K): 0.000868
solubility (mole fraction) (in ethylene glycol, 308.15 K): 0.00102
solubility (mole fraction) (in ethylene glycol, 313.15 K): 0.00117
solubility (mole fraction) (in ethylene glycol, 318.15 K): 0.00136
solubility (mole fraction) (in ethylene glycol, 323.15 K): 0.00157
solubility (mole fraction) (in methanol, 278.15 K): 0.00319
solubility (mole fraction) (in methanol, 283.15 K): 0.00442
solubility (mole fraction) (in methanol, 288.15 K): 0.00573
solubility (mole fraction) (in methanol, 293.15 K): 0.0073
solubility (mole fraction) (in methanol, 298.15 K): 0.00915
solubility (mole fraction) (in methanol, 303.15 K): 0.0109
solubility (mole fraction) (in methanol, 308.15 K): 0.0127
solubility (mole fraction) (in methanol, 313.15 K): 0.0149
solubility (mole fraction) (in methanol, 318.15 K): 0.0173
solubility (mole fraction) (in methanol, 323.15 K): 0.0201
solubility (mole fraction) (in n-propanol, 278.15 K): 0.000781
solubility (mole fraction) (in n-propanol, 283.15 K): 0.001
solubility (mole fraction) (in n-propanol, 288.15 K): 0.00126
solubility (mole fraction) (in n-propanol, 293.15 K): 0.00152
solubility (mole fraction) (in n-propanol, 298.15 K): 0.00181
solubility (mole fraction) (in n-propanol, 303.15 K): 0.00214
solubility (mole fraction) (in n-propanol, 308.15 K): 0.00252
solubility (mole fraction) (in n-propanol, 313.15 K): 0.00291
solubility (mole fraction) (in n-propanol, 318.15 K): 0.00334
solubility (mole fraction) (in n-propanol, 323.15 K): 0.00383
solubility (mole fraction) (in water, 278.15 K): 3.69e-05
solubility (mole fraction) (in water, 283.15 K): 4.76e-05
solubility (mole fraction) (in water, 288.15 K): 6.03e-05
solubility (mole fraction) (in water, 293.15 K): 7.35e-05
solubility (mole fraction) (in water, 298.15 K): 8.88e-05
solubility (mole fraction) (in water, 303.15 K): 0.000106
solubility (mole fraction) (in water, 308.15 K): 0.000123
solubility (mole fraction) (in water, 313.15 K): 0.000141
solubility (mole fraction) (in water, 318.15 K): 0.000161
solubility (mole fraction) (in water, 323.15 K): 0.000182
